From patent US9302999B2, “Substituted triazoles as herbicides” (E. I. DU PONT DE NEMOURS AND COMPANY, priority 2012, dated 2016)

Columns and labels:
Assay type in all cases: in vivo
[1] = tested on: barnyardgrass (Echinochloa crus-galli); test: Test A pre-/postemergence: barnyardgrass; conditions: for Barnyardgrass plant response rating: Postemergence; for Plant response rating, Barnyardgrass: Preemergence
How it was run: (§1)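 Soil medium was loam blended with sand; treatments pre- and postemergence were applied concurrently, postemergence at one- to two-leaf stage. Approximately ten days in greenhouse preceded visual comparison with untreated controls, scored 0 (no effect) to 100 (complete control).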

rice (Oryza sativa) = test: Test C flooded paddy test: rice; conditions: scale 0 to 100 (0 no effect, 100 complete control)
How it was run: (§2)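 Greenhouse plants treated at the 2-leaf stage by dosing the flood water (3 cm depth, maintained) were compared with controls after 13 to 15 days and rated 0 to 100, where 100 means complete control; a dash marks no test result.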

[2] = tested on: barnyardgrass (Echinochloa crus-galli); test: Test C flooded paddy test: barnyardgrass; conditions: scale 0 to 100 (0 no effect, 100 complete control)
How it was run: as §2

[3] = tested on: crabgrass, large (large crabgrass, Digitaria sanguinalis); test: Test A pre-/postemergence: crabgrass, large; conditions: for Crabgrass, Large plant response rating: Postemergence; for Plant response rating, Crabgrass, Large: Preemergence
How it was run: as §1

[4] = tested on: morningglory (Ipomoea spp.); test: Test A pre-/postemergence: morningglory; conditions: for Morningglory plant response rating: Postemergence; for Plant response rating, Morningglory: Preemergence
How it was run: as §1

[5] = tested on: foxtail, giant (giant foxtail, Setaria faberii); test: Test A pre-/postemergence: foxtail, giant; conditions: for Foxtail, Giant plant response rating: Postemergence; for Plant response rating, Foxtail, Giant: Preemergence
How it was run: as §1

[6] = tested on: ducksalad (Heteranthera limosa); test: Test C flooded paddy test: ducksalad; conditions: scale 0 to 100 (0 no effect, 100 complete control)
How it was run: as §2

[7] = tested on: velvetleaf (Abutilon theophrasti); test: Test A pre-/postemergence: velvetleaf; conditions: for Velvetleaf plant response rating: Postemergence; for Plant response rating, Velvetleaf: Preemergence
How it was run: as §1

[8] = tested on: sedge, umbrella (small-flower umbrella sedge, Cyperus difformis); test: Test C flooded paddy test: sedge, umbrella; conditions: scale 0 to 100 (0 no effect, 100 complete control)
How it was run: as §2

[9] = tested on: pigweed (Amaranthus retroflexus); test: Test A pre-/postemergence: pigweed; conditions: for Pigweed plant response rating: Postemergence; for Plant response rating, Pigweed: Preemergence
How it was run: as §1

[10] = tested on: wheat (Triticum aestivum); test: Test A pre-/postemergence: wheat; conditions: for Wheat plant response rating: Postemergence; for Plant response rating, Wheat: Preemergence
How it was run: as §1

corn (Zea mays) = test: Test A pre-/postemergence: corn; conditions: for Corn plant response rating: Postemergence; for Plant response rating, Corn: Preemergence
How it was run: as §1

[11] = 125 g ai/ha, 0 to 100 scale, 0 is no effect, 100 is complete control
[12] = 500 g ai/ha, visual rating on 0 to 100 scale (0 no effect, 100 complete control), approximately ten days
[13] = 125 g ai/ha, 0 to 100 scale (0 no effect, 100 complete control)
[14] = 500 g ai/ha, 0 to 100 scale, 0 is no effect, 100 is complete control
[15] = Flood (flooded paddy test), 62 g ai/ha, visual rating after 13 to 15 days
[16] = Flood (flooded paddy test), 125 g ai/ha, visual rating after 13 to 15 days
[17] = Flood (flooded paddy test), 250 g ai/ha, visual rating after 13 to 15 days

Cc1nn(-c2ccc(C(F)(F)F)cc2)nc1C(=O)c1cccc(C(F)(F)F)c1 [Compound 45]
0: Plant response rating, Barnyardgrass [1, 13] | Plant response rating, Rice (rice (Oryza sativa); [15]) | Plant response rating, Rice (rice (Oryza sativa); [16]) | Plant response rating, Rice (rice (Oryza sativa); [17]) | Plant response rating, Rice (rice (Oryza sativa); Flood, 31 g ai/ha) | Plant response rating, Barnyardgrass [2, 15] | Plant response rating, Barnyardgrass [2, 16] | Plant response rating, Barnyardgrass [2, 17] | Plant response rating, Barnyardgrass ([2]; Flood, 31 g ai/ha) | Plant response rating, Morningglory [4, 13] | Plant response rating, Ducksalad [6, 15] | Plant response rating, Ducksalad [6, 16] | Plant response rating, Ducksalad [6, 17] | Plant response rating, Ducksalad ([6]; Flood, 31 g ai/ha) | Plant response rating, Velvetleaf [7, 13] | Plant response rating, Sedge, Umbrella [8, 15] | Plant response rating, Sedge, Umbrella [8, 16] | Plant response rating, Sedge, Umbrella [8, 17] | Plant response rating, Sedge, Umbrella ([8]; Flood, 31 g ai/ha) | Plant response rating, Wheat [10, 13] | Plant response rating, Wheat [10, 14] | Plant response rating, Corn (corn (Zea mays); [13]) | Plant response rating, Corn (corn (Zea mays); [14])
40: Morningglory plant response rating [4, 11] | Velvetleaf plant response rating [7, 11]
50: Foxtail, Giant plant response rating [5, 12] | Plant response rating, Foxtail, Giant [5, 13]
60: Crabgrass, Large plant response rating [3, 11] | Plant response rating, Foxtail, Giant [5, 14]
100: Pigweed plant response rating [9, 11] | Pigweed plant response rating [9, 12]
80: Morningglory plant response rating [4, 12]
70: Crabgrass, Large plant response rating [3, 12] | Plant response rating, Crabgrass, Large [3, 13] | Plant response rating, Crabgrass, Large [3, 14] | Velvetleaf plant response rating [7, 12]
10: Barnyardgrass plant response rating [1, 11] | Barnyardgrass plant response rating [1, 12] | Plant response rating, Barnyardgrass [1, 14] | Plant response rating, Morningglory [4, 14] | Plant response rating, Velvetleaf [7, 14] | Plant response rating, Pigweed [9, 13] | Wheat plant response rating [10, 11] | Corn plant response rating (corn (Zea mays); [11])
20: Foxtail, Giant plant response rating [5, 11] | Plant response rating, Pigweed [9, 14] | Wheat plant response rating [10, 12] | Corn plant response rating (corn (Zea mays); [12])

Cc1nn(-c2cnc(Cl)cn2)nc1C(=O)c1cccc(C(F)(F)F)c1 [Compound 50]
10: Barnyardgrass plant response rating [1, 12] | Crabgrass, Large plant response rating [3, 12] | Plant response rating, Crabgrass, Large [3, 13] | Morningglory plant response rating [4, 12] | Foxtail, Giant plant response rating [5, 12] | Plant response rating, Foxtail, Giant [5, 13] | Velvetleaf plant response rating [7, 12] | Pigweed plant response rating [9, 11] | Plant response rating, Pigweed [9, 14] | Corn plant response rating (corn (Zea mays); [12])
0: Barnyardgrass plant response rating [1, 11] | Plant response rating, Barnyardgrass [1, 13] | Plant response rating, Barnyardgrass [1, 14] | Plant response rating, Rice (rice (Oryza sativa); [15]) | Plant response rating, Rice (rice (Oryza sativa); [17]) | Plant response rating, Barnyardgrass [2, 15] | Plant response rating, Barnyardgrass [2, 17] | Crabgrass, Large plant response rating [3, 11] | Morningglory plant response rating [4, 11] | Plant response rating, Morningglory [4, 13] | Plant response rating, Morningglory [4, 14] | Foxtail, Giant plant response rating [5, 11] | Plant response rating, Ducksalad [6, 15] | Plant response rating, Ducksalad [6, 17] | Velvetleaf plant response rating [7, 11] | Plant response rating, Velvetleaf [7, 13] | Plant response rating, Velvetleaf [7, 14] | Plant response rating, Sedge, Umbrella [8, 15] | Plant response rating, Sedge, Umbrella [8, 17] | Plant response rating, Pigweed [9, 13] | Wheat plant response rating [10, 11] | Wheat plant response rating [10, 12] | Plant response rating, Wheat [10, 13] | Plant response rating, Wheat [10, 14] | Corn plant response rating (corn (Zea mays); [11]) | Plant response rating, Corn (corn (Zea mays); [13]) | Plant response rating, Corn (corn (Zea mays); [14])
40: Plant response rating, Foxtail, Giant [5, 14]
20: Plant response rating, Crabgrass, Large [3, 14] | Pigweed plant response rating [9, 12]
